Reference: ChEMBL document CHEMBL3044960, “Evaluation of fungicide applications to sweet orange at different flowering stages for control of postbloom fruit drop caused by Colletotrichum acutatum” (2008)
The source made the active and inactive calls. The rule behind the calls is not given here.

Experiments:
Colletotrichum acutatum [1] = assay: Fungicidal activity against Colletotrichum acutatum infested Citrus sinensis assessed as total fruit weight per plant at 0.5 g/l applied through airblast sprayer during green bud, white bud and hollow ball flower stages measured after 70 days (Rvb =65.90 kg); type: functional
Colletotrichum acutatum [2] = assay: Fungicidal activity against Colletotrichum acutatum infested Citrus sinensis assessed as increase in fruit set at 0.5 g/l applied through airblast sprayer during white bud and hollow ball flower stages measured after 70 days relative to control; type: functional, organism-based
Colletotrichum acutatum [3] = assay: Fungicidal activity against Colletotrichum acutatum infested Citrus sinensis assessed as reduction in number of symptomatic flowers at 0.5 g/l applied through airblast sprayer during green bud, white bud and hollow ball flower stages measured after 7 days; type: functional, organism-based
Colletotrichum acutatum [4] = assay: Fungicidal activity against Colletotrichum acutatum infested Citrus sinensis assessed as total fruit weight per plant at 0.5 g/l applied through airblast sprayer during open flower stage measured after 70 days (Rvb =49.88 kg); type: functional
Colletotrichum acutatum [5] = assay: Fungicidal activity against Colletotrichum acutatum infested Citrus sinensis assessed as increase in fruit production per tree at 0.5 g/l applied through airblast sprayer during green bud to white ball flower stages measured after 70 days in presence of KNO3; type: functional, organism-based
Colletotrichum acutatum [6] = assay: Fungicidal activity against Colletotrichum acutatum infested Citrus sinensis assessed as increase in fruit set percentage at 0.5 g/l applied through airblast sprayer during green bud to white ball flower stages measured after 70 days; type: functional, organism-based
Colletotrichum acutatum [7] = assay: Fungicidal activity against Colletotrichum acutatum infested Citrus sinensis assessed as reduction in symptomatic flowers at 0.5 g/l applied through airblast sprayer during green bud and hollow ball flower stages measured after 7 days; type: functional, organism-based
Colletotrichum acutatum [8] = assay: Fungicidal activity against Colletotrichum acutatum infested Citrus sinensis assessed as reduction in symptomatic flowers at 0.5 g/l applied through airblast sprayer during hollow ball flower stage measured after 7 days; type: functional, organism-based
Colletotrichum acutatum [9] = assay: Fungicidal activity against Colletotrichum acutatum infested Citrus sinensis assessed as total fruit weight per plant at 0.5 g/l applied through airblast sprayer during green bud and hollow ball flower stages measured after 70 days (Rvb =49.88 kg); type: functional
Colletotrichum acutatum [10] = assay: Fungicidal activity against Colletotrichum acutatum infested Citrus sinensis assessed as total fruit weight per plant at 0.5 g/l applied through airblast sprayer during green bud and white bud flower stages measured after 70 days (Rvb =65.90 kg); type: functional
Colletotrichum acutatum [11] = assay: Fungicidal activity against Colletotrichum acutatum infested Citrus sinensis assessed as increase in fruit production per tree at 0.5 g/l applied through airblast sprayer during green bud to white ball flower stages measured after 70 days; type: functional, organism-based
Colletotrichum acutatum [12] = assay: Fungicidal activity against Colletotrichum acutatum infested Citrus sinensis assessed as reduction in symptomatic flowers at 0.5 g/l applied through airblast sprayer during open flower stage measured after 7 days; type: functional, organism-based
Colletotrichum acutatum [13] = assay: Fungicidal activity against Colletotrichum acutatum infested Citrus sinensis assessed as reduction in symptomatic flowers at 0.5 g/l applied through airblast sprayer during white bud and hollow ball flower stages measured after 7 days; type: functional, organism-based
Colletotrichum acutatum [14] = assay: Fungicidal activity against Colletotrichum acutatum infested Citrus sinensis assessed as total fruit weight per plant at 0.5 g/l applied through airblast sprayer during green bud until open flower stages measured after 70 days (Rvb =65.90 kg); type: functional
Colletotrichum acutatum [15] = assay: Fungicidal activity against Colletotrichum acutatum infested Citrus sinensis assessed as reduction in number of symptomatic flowers at 0.5 g/l applied through airblast sprayer during green bud and white bud flower stages measured after 7 days; type: functional, organism-based
Colletotrichum acutatum [16] = assay: Fungicidal activity against Colletotrichum acutatum infested Citrus sinensis assessed as reduction in number of symptomatic flowers at 0.5 g/l applied through airblast sprayer during green bud flower stage measured after 7 days; type: functional, organism-based
Colletotrichum acutatum [17] = assay: Fungicidal activity against Colletotrichum acutatum infested Citrus sinensis assessed as reduction in number of symptomatic flowers at 0.5 g/l applied through airblast sprayer during green bud until open flower stages measured after 7 days; type: functional, organism-based
Colletotrichum acutatum [18] = assay: Fungicidal activity against Colletotrichum acutatum infested Citrus sinensis assessed as total fruit weight per plant at 0.5 g/l applied through airblast sprayer during green bud flower stage measured after 70 days (Rvb =65.90 kg); type: functional
Colletotrichum acutatum [19] = assay: Fungicidal activity against Colletotrichum acutatum infested Citrus sinensis assessed as increase in fruit set at 0.5 g/l applied through airblast sprayer during open flower stage measured after 70 days; type: functional, organism-based
Colletotrichum acutatum [20] = assay: Fungicidal activity against Colletotrichum acutatum infested Citrus sinensis assessed as increase in fruit set percentage at 0.5 g/l applied through airblast sprayer during green bud to white ball flower stages measured after 70 days in presence of KNO3; type: functional, organism-based
Colletotrichum acutatum [21] = assay: Fungicidal activity against Colletotrichum acutatum infested Citrus sinensis assessed as increase in fruit set at 0.5 g/l applied through airblast sprayer during white bud flower stage measured after 70 days; type: functional, organism-based
Colletotrichum acutatum [22] = assay: Fungicidal activity against Colletotrichum acutatum infested Citrus sinensis assessed as increase in fruit set at 0.5 g/l applied through airblast sprayer during green bud flower stage measured after 70 days; type: functional, organism-based
Colletotrichum acutatum [23] = assay: Fungicidal activity against Colletotrichum acutatum infested Citrus sinensis assessed as total fruit weight per plant at 0.5 g/l applied through airblast sprayer during hollow ball flower stage measured after 70 days (Rvb =49.88 kg); type: functional
Colletotrichum acutatum [24] = assay: Fungicidal activity against Colletotrichum acutatum infested Citrus sinensis assessed as reduction in persistant calyces at 0.5 g/l applied through airblast sprayer during green bud to white ball flower stages measured after 7 days; type: functional, organism-based
Colletotrichum acutatum [25] = assay: Fungicidal activity against Colletotrichum acutatum infested Citrus sinensis assessed as total fruit weight per plant at 0.5 g/l applied through airblast sprayer during white bud and hollow ball flower stages measured after 70 days (Rvb =49.88 kg); type: functional

In the case of `COC(=O)Nc1nc2ccccc2[nH]1` [CARBENDAZIM], the Activity (Colletotrichum acutatum [1]) is reported as 102.4 kg, the Activity (Colletotrichum acutatum [2]) is reported as “Active” and the Activity (Colletotrichum acutatum [3]) is reported as “Active”. The Activity (Colletotrichum acutatum [4]) was 59 kg, the Activity (Colletotrichum acutatum [5]) was “Active” and the Activity (Colletotrichum acutatum [6]) was “Active”. The Activity (Colletotrichum acutatum [7]) was “Active”, the Activity (Colletotrichum acutatum [8]) was “Active” and the Activity (Colletotrichum acutatum [9]) was 73.8 kg. For the same compound, the Activity (Colletotrichum acutatum [10]) was 67.9 kg, the Activity (Colletotrichum acutatum [11]) was “Active” and the Activity (Colletotrichum acutatum [12]) was “inactive”. For the same compound, the Activity (Colletotrichum acutatum [13]) was “Active”, the Activity (Colletotrichum acutatum [14]) was 114.9 kg and the Activity (Colletotrichum acutatum [15]) was “Active”. The Activity (Colletotrichum acutatum [16]) was “Active”, the Activity (Colletotrichum acutatum [17]) was “Active” and the Activity (Colletotrichum acutatum [18]) was 53.7 kg. The Activity (Colletotrichum acutatum [19]) was “inactive”, the Activity (Colletotrichum acutatum [20]) was “Active” and the Activity (Colletotrichum acutatum [21]) was “Active”. For the same compound, the Activity (Colletotrichum acutatum [22]) was “Active”, the Activity (Colletotrichum acutatum [23]) was 57 kg and the Activity (Colletotrichum acutatum [24]) was “Active”. The Activity (Colletotrichum acutatum [25]) was 63.5 kg.
